Key:
Ctenocephalides felis [1] = test: In vitro contact test with fleas; settings: read-out: insecticidal activity; for pest or weed control at 0.2 µg/cm2, 0.2 µg/cm2: dose 0.2 μg/cm^2, dead or moribund fleas after 48 h; for pest or weed control at 1 µg/cm2, 1 µg/cm2: dose 1 μg/cm^2, dead or moribund fleas after 48 h; for pest or weed control at 0.04 µg/cm2, 0.04 µg/cm2: dose 0.04 μg/cm^2, dead or moribund fleas after 48 h
Method: In Vitro Contact Tests with Fleas
In vitro contact tests with fleas were conducted with adult male and female cat fleas (Ctenocephalides felis).
(§1) To coat the test tubes, the test substance was dissolved and diluted in acetone p.a. to the desired concentration. The solution was then homogeneously applied to the inner wall and base of a glass tube by turning and rocking on an orbital shaker until complete evaporation of the solvent. For example, with a 900 ppm solution of test substance, an area-based dose of 5 μg/cm^2 was achieved.
Upon complete evaporation of the solvent, 5-10 adult cat fleas (Ctenocephalides felis) were added to each coated tube, which was then sealed with a perforated plastic lid and incubated in a horizontal position at room temperature and ambient humidity. After 48 h, insecticidal activity against fleas was determined. For this, fleas were collected to the base of the tube by knocking the tube, and the tube was allowed to stand upright. Fleas which remained motionless at the base or moved in an uncoordinated manner were considered dead or moribund, respectively.
A substance was judged to have good insecticidal activity against Ctenocephalides felis when at least 80% of the fleas were found dead or moribund at a dose of the substance of μg/cm^2. 100% insecticidal activity means that all the fleas were found dead or moribund. 0% insecticidal activity means that no fleas were found dead or moribund.

[2] = tested on: Rhipicephalus (Boophilus) microplus; test: In vitro injection test with Rhipicephalus (Boophilus) microplus (BOOPMI Inj); settings: 168 h, laid fertile eggs after 7 days, read-out: acaricidal activity; for pest or weed control at 32 ng: dose 0.032 μg/animal injected; for pest or weed control at 0.00016 mg: dose 0.16 μg/animal injected; for pest or weed control at 0.0008 mg: dose 0.8 μg/animal injected; for pest or weed control at 6.4 ng: dose 0.0064 μg/animal injected
Method: In Vitro Injection Test with Rhipicephalus (Boophilus) Microplus (BOOPMI Inj)
To produce an appropriate mixture for injection, the test substance was dissolved and diluted in dimethyl sulphoxide to the desired concentration. 1 μl of the test mixture was injected into the abdomen of each of 5 engorged adult female cattle ticks (Rhipicephalus (Boophilus) microplus). The ticks were transferred into petri dishes and maintained in a climate-controlled room [28° C., 85% rel. hum.].
Acaricidal activity against cattle ticks was assessed after 7 days by assessment of laid fertile eggs. […] An acaricidal activity of 100% means that none of the ticks laid eggs or laid eggs were infertile; 0% means that the ticks laid eggs, and all the eggs were fertile.

Rhipicephalus sanguineus = test: In vitro contact test with adult hard ticks (Rhipicephalus sanguineus); settings: read-out: acaricidal activity; for pest or weed control at 0.04 µg/cm2, 0.04 µg/cm2: dose 0.04 μg/cm^2, 48 h; for pest or weed control at 0.2 µg/cm2, 0.2 µg/cm2: dose 0.2 μg/cm^2, 48 h; for pest or weed control at 1 µg/cm2, 1 µg/cm2: dose 1 μg/cm^2, 48 h
Method: (§2) In Vitro Contact Tests with Adult Hard Ticks
(§3) In vitro contact tests with ticks were conducted with adult males and females of Rhipicephalus sanguineus, Ixodes ricinus, or Dermacentor variabilis, or nymphs of Amblyomma americanum.
as §1, with “For the coating of” for “To coat”, “vials,” for “tubes,”, “vial” for “tube”
(§4) After the solvent was completely evaporated, 5-10 adult ticks were put in each coated test vial, which was then sealed with a perforated plastic lid and incubated in a horizontal position in the dark at room temperature and ambient humidity (Rhipicephalus sanguineus) or in a climate-controlled cabinet (Ixodes ricinus, Dermacentor variabilis, Amblyomma americanum [21° C., 85% rel. hum.]). Acaricidal activity against the respective tick species was determined after 48 h. For this, ticks were collected to the base of the test vial by gentle knocking, and test vials were then incubated on a hotplate at 45-50° C. for no longer than 5 min. Ticks which remained motionless on the base of the test vial or moved uncoordinated without deliberately climbing up to avoid the heat were considered dead or moribund, respectively.
(§5) A substance was judged to have good acaricidal activity against the respective tick species when at least 80% of ticks were found dead or moribund at a dose of the substance of g/cm^2. An acaricidal activity of 100% means all ticks were dead or moribund. An acaricidal activity of 0% means none of the ticks was found dead or moribund.

Ixodes ricinus = test: In vitro contact test with adult hard ticks (Ixodes ricinus); settings: read-out: acaricidal activity; for pest or weed control at 0.2 µg/cm2, 0.2 µg/cm2: dose 0.2 μg/cm^2, 48 h; for pest or weed control at 1 µg/cm2, 1 µg/cm2: dose 1 μg/cm^2, 48 h; for pest or weed control at 5 µg/cm2, 5 µg/cm2: dose 5 μg/cm^2, 48 h
Method: as §2, §3
as §1, with “For the coating of” for “To coat”, “vials,” for “tubes,”, “vial” for “tube”
as §4, §5

Dermacentor variabilis = test: In vitro contact test with adult hard ticks (Dermacentor variabilis); settings: read-out: acaricidal activity; for pest or weed control at 0.2 µg/cm2, 0.2 µg/cm2: dose 0.2 μg/cm^2, 48 h; for pest or weed control at 1 µg/cm2, 1 µg/cm2: dose 1 μg/cm^2, 48 h
Method: as §2, §3
as §1, with “For the coating of” for “To coat”, “vials,” for “tubes,”, “vial” for “tube”
as §4, §5

Ctenocephalides felis [3] = test: Ctenocephalides felis in-vitro feeding test with fleas (CTECFE oral); settings: 48 hours, read-out: insecticidal feeding activity; for pest or weed control at 0.032 ppm: dose 0.032 ppm in citrated cattle blood; for pest or weed control at 0.16 ppm: dose 0.16 ppm in citrated cattle blood; for pest or weed control at 0.8 ppm: dose 0.8 ppm in citrated cattle blood; for pest or weed control at 4 ppm: dose 4 ppm in citrated cattle blood; for pest or weed control at 0.0064 ppm: dose 0.0064 ppm in citrated cattle blood
Method: Ctenocephalides felis In-Vitro Feeding Test with Fleas (CTECFE Oral)
To prepare a test blood mixture for feeding fleas, the test substance was dissolved in dimethyl sulphoxide and diluted with citrated cattle blood to the desired concentration.
To assemble the test set-up, about 20 unfed adult male and female cat fleas
(Ctenocephalides felis) were placed in a chamber which was closed at the top and bottom with gauze. A metal cylinder was sealed at one end with parafilm membrane, placed with the sealed base onto the chamber, and filled with the test blood mixture, which could be imbibed by the fleas through the parafilm membrane. The assembled test set-up was maintained at about 37° C. After 48 hours, the insecticidal feeding activity against fleas was determined. 100% means that all of the fleas were killed; 0% means that none of the fleas was killed.

Amblyomma americanum = test: In vitro contact test with hard ticks (Amblyomma americanum nymphs); settings: read-out: acaricidal activity; for pest or weed control at 0.2 µg/cm2, 0.2 µg/cm2: dose 0.2 μg/cm^2, 48 h; for pest or weed control at 1 µg/cm2, 1 µg/cm2: dose 1 μg/cm^2, 48 h
Method: as §2, §3
as §1, with “For the coating of” for “To coat”, “vials,” for “tubes,”, “vial” for “tube”
as §4, §5

SMILES	pest or weed control at 0.2 µg/cm2, 0.2 µg/cm2 (Ctenocephalides felis [1]) [%]	pest or weed control at 1 µg/cm2, 1 µg/cm2 (Ctenocephalides felis [1]) [%]	pest or weed control at 32 ng [2] [%]	pest or weed control at 0.00016 mg [2] [%]	pest or weed control at 0.0008 mg [2] [%]	pest or weed control at 0.04 µg/cm2, 0.04 µg/cm2 (Rhipicephalus sanguineus) [%]	pest or weed control at 0.2 µg/cm2, 0.2 µg/cm2 (Rhipicephalus sanguineus) [%]	pest or weed control at 1 µg/cm2, 1 µg/cm2 (Rhipicephalus sanguineus) [%]	pest or weed control at 0.2 µg/cm2, 0.2 µg/cm2 (Ixodes ricinus) [%]	pest or weed control at 1 µg/cm2, 1 µg/cm2 (Ixodes ricinus) [%]	pest or weed control at 5 µg/cm2, 5 µg/cm2 (Ixodes ricinus) [%]	pest or weed control at 0.2 µg/cm2, 0.2 µg/cm2 (Dermacentor variabilis) [%]	pest or weed control at 1 µg/cm2, 1 µg/cm2 (Dermacentor variabilis) [%]	pest or weed control at 0.032 ppm (Ctenocephalides felis [3]) [%]	pest or weed control at 0.16 ppm (Ctenocephalides felis [3]) [%]	pest or weed control at 0.8 ppm (Ctenocephalides felis [3]) [%]	pest or weed control at 4 ppm (Ctenocephalides felis [3]) [%]	pest or weed control at 0.2 µg/cm2, 0.2 µg/cm2 (Amblyomma americanum) [%]	pest or weed control at 1 µg/cm2, 1 µg/cm2 (Amblyomma americanum) [%]	pest or weed control at 0.04 µg/cm2, 0.04 µg/cm2 (Ctenocephalides felis [1]) [%]	further results
N#Cc1ccc(C(=O)Nc2cccc(C(=O)Nc3c(Br)cc(C(F)(C(F)(F)F)C(F)(F)F)cc3OC(F)(F)F)c2F)cc1 [Compound 13]	95	95	100	100	100	90	90	90	90	90	90	90	90	95	95	95	95	90	90		
N#Cc1ccc(C(=O)Nc2cccc(C(=O)Nc3c(Br)cc(C(F)(C(F)(F)F)C(F)(F)F)cc3C(F)(F)F)c2F)cc1 [Compound 16]	95	95		100	100	90	90	90	90	90	90	90	90	95	95	95	95	90	90	95	pest or weed control at 0.0064 ppm (Ctenocephalides felis [3]): 95%
CN(C(=O)c1ccc(F)cc1)c1cccc(C(=O)Nc2c(Br)cc(C(F)(C(F)(F)F)C(F)(F)F)cc2C(F)(F)F)c1F [Compound 26]	95	95	100	100	100			90		90	90	90	90			95	95	90	90	95	
N#Cc1ccc(C(=O)Nc2cccc(C(=O)Nc3c(I)cc(C(F)(C(F)(F)F)C(F)(F)C(F)(F)F)cc3C(F)(F)F)c2F)cc1 (stereo not shown) [Compound 34]	95	95	100	100	100		90	90		90	90	90	90	95	95	95	95	90	90		pest or weed control at 6.4 ng [2]: 100%; pest or weed control at 0.04 µg/cm2, 0.04 µg/cm2 (Dermacentor variabilis; dose 0.04 μg/cm^2, 48 h): 90%; pest or weed control at 0.0064 ppm (Ctenocephalides felis [3]): 95%
O=C(Nc1cccc(C(=O)Nc2c(I)cc(C(F)(C(F)(F)F)C(F)(F)C(F)(F)F)cc2C(F)(F)F)c1F)c1ccc(F)cc1 (stereo not shown) [Compound 35]	95	95	100	100	100	90	90	90	90	90	90	90	90	95	95	95	95	90	90		pest or weed control at 6.4 ng [2]: 100%; pest or weed control at 0.04 µg/cm2, 0.04 µg/cm2 (Amblyomma americanum; dose 0.04 μg/cm^2, 48 h): 90%
O=C(Nc1cccc(C(=O)Nc2c(Br)cc(C(F)(C(F)(F)F)C(F)(F)C(F)(F)F)cc2C(F)(F)F)c1F)c1ccc(F)cc1 (stereo not shown) [Compound 36]	95	95	100	100	100	90	90	90	90	90	90	90	90		95	95	95	90	90	95	pest or weed control at 0.0064 ppm (Ctenocephalides felis [3]): 95%
